Values after ≈ are worked out from the molar mass of the structure shown. “Also recorded” adds a separate entry of the source. Read-outs that look alike come from different tables or passages of the source.
Assays:
[1] = type: physicochemical; details: methanol, DPBF trap, 450–470 nm, relative to riboflavin
VSV Indiana strain = experiment: microbe, parasite or virus in culture; type: cell-based, vesicular stomatitis Indiana virus; details: Vesicular stomatitis virus, HEK-293T, 1 h, read-out: VSV, EC50
HSV-1, strain MacIntyre [2] = experiment: Photodynamic inactivation of HSV-1 (virus treated with compound, plaque assay); type: cell-based, herpes simplex virus-1; details: for HSV-1-inactivating effect after blue light irradiation: 10 µM
[3] = Light-induced cytotoxicity (photocytotoxicity) in Vero cells; type: cell-based, African Green Monkey; details: African green monkey, Vero cells; blue light 465–480 nm, 10 min, then 48 h; read-out: cell viability of Vero cells after irradiation
Protocol: (§1) Subsequently, cells treated with the compounds were irradiated with LEDs (465–480 nm, 30 mW/cm^2) for 10 min at RT. As a negative control, compound-treated cells were incubated for 10 min in daylight at RT. Then, both the irradiated and non-irradiated cell monolayers were incubated at 37 °C in the dark for 48 h. Subsequently, the cell culture medium was aspirated and the cytotoxicity of the tested perylene derivatives was determined based on cell viability using Cell Counting Kit-8 (Dojindo Molecular Technologies, Munich, Germany) according to the manufacturer’s instructions. Note: all manipulation with samples was performed in daylight (Figure 7K).

Vero cells = experiment: as above; type: cell-based, African Green Monkey; details: blue light 10 min vs daylight, 0–10 µM, 48 h
Protocol: as §1

[4] = Solubilization in 15% DMSO in water; details: for solubility: aqueous with cosolvent or surfactant or cyclodextrin, kinetic from dmso stock
Protocol: To perform this measurement, the compound was dissolved in DMSO and then diluted with water to achieve a solution containing 15% DMSO. The solution was centrifuged, and the resulting supernatant was lyophilized (evaporated) to dryness. Subsequently, the dry residue was dissolved in DMSO, and the concentration of the compound dissolved in DMSO was determined spectrophotometrically.
The mixtures were then centrifuged at 20,000 rcf for 5 min; 500 μL of the supernatant were collected and lyophilized; 76 µL of DMSO were added to the dry residue, and the absorbance was measured at the maximum absorption wavelength for compounds in solutions diluted 200 times with methanol. The data obtained were recalculated according to the law of dilutions and Beer’s law to obtain the initial concentrations of the compounds solubilized in 15% DMSO in water.

HSV-1, strain MacIntyre [5] = experiment: HSV-1 titer reduction assay in Vero cells; details: 48 h; for viral replication and spread in HSV-1-infected Vero cell culture: inside cell culture (Figure 6C)
[6] = Cytotoxicity assay in Vero cells (Cell Counting Kit-8); type: cell-based; details: African green monkey, 48 h incubation, compared to controls (DMSO-treated cells)
Protocol: Vero cells were cultured for 24 h in 96-well plates to form a confluent monolayer and then were treated with the tested compounds at concentrations of 50 µM. After 48 h of cultivation in the dark at 37 °C under 5% CO2, the cell culture medium was aspirated. The potential cytotoxicity of the tested derivatives was determined based on cell viability using Cell Counting Kit-8 (Dojindo Molecular Technologies, Munich, Germany) according to the manufacturer’s instructions.

[7] = 10 µM, viral titer in medium supernatant
[8] = Human alphaherpesvirus 1, 10 min, HSV-1 10^4 PFU/mL, blue light 465–480 nm, 30 mW/cm^2, 10 min, plaque assay, read-out: EC50 (µM) under Blue Light
[9] = Human alphaherpesvirus 1, 10 min, HSV-1 10^4 PFU/mL, 10 min in daylight, plaque assay, read-out: EC50 (µM) in Daylight

SMILES	1O2 Quantum Yield [1] [%]	EC50 (VSV Indiana strain) [µM]	solubility [4] [µM]	anti-HSV-1 activity in Vero cells (HSV-1, strain MacIntyre [5]; [7])	other results
O=c1[nH]c(=O)n([C@@H]2O[C@H](CO)[C@@H](O)[C@@H]2O)cc1C#Cc1ccc2c3cccc4cccc(c5cccc1c52)c43 [Compound 9, reference compound]	40.1 ± 4.0	< 10			
CCCCCCCCc1ccc2c3cccc4c(C#Cc5cn([C@@H]6O[C@H](CO)[C@@H](O)[C@@H]6O)c(=O)[nH]c5=O)ccc(c5cccc1c52)c43 [Compound 9b, 5-[9(10)-Octylperylen-3-ylethynyl]-arabino-uridine]	18.6 ± 2.3	10 to 200	0.38 (≈ 0.24 µg/mL)	only moderately active	HSV-1-inactivating effect after blue light irradiation (HSV-1, strain MacIntyre [2]): complete inactivation of HSV-1; viability at 48 h [3]: 115 to 128%; photocytotoxicity to Vero cells (Vero cells): did not increase the cytotoxicity; times less effectively dissolved than deoxy- and ribo- analogs (10b, 11b) ([4]; 15% DMSO in water): approximately 1.5 times
CCCCCCCCCCCCc1ccc2c3cccc4c(C#Cc5cn([C@@H]6O[C@H](CO)[C@@H](O)[C@@H]6O)c(=O)[nH]c5=O)ccc(c5cccc1c52)c43 [Compound 9c, 5-[9(10)-Dodecylperylen-3-ylethynyl]-arabino-uridine]	22.5 ± 3.4	> 175	0.24 (≈ 0.165 µg/mL)	completely inactive	viability at 48 h [3]: 115 to 128%; photocytotoxicity to Vero cells (Vero cells): did not increase the cytotoxicity
O=c1[nH]c(=O)n([C@@H]2O[C@H](CO)[C@@H](O)[C@H]2O)cc1C#Cc1ccc2c3cccc4cccc(c5cccc1c52)c43 [Compound 10, reference compound]	33.6 ± 1.2	< 10			EC50 (HSV-1, strain MacIntyre [2]; [8]): 0.116 µM
CCCCc1ccc2c3cccc4c(C#Cc5cn([C@@H]6O[C@H](CO)[C@@H](O)[C@H]6O)c(=O)[nH]c5=O)ccc(c5cccc1c52)c43 [Compound 10a, 5-[9(10)-Butylperylen-3-ylethynyl]-ribo-uridine]	23.1 ± 2.2	10 to 200	0.02 (≈ 0.0115 µg/mL)	completely inhibited viral replication; also recorded: higher antiviral potency compared to acyclovir	Decrease in EC50 (Fold) (HSV-1, strain MacIntyre [2]): 20.3 fold; EC50 (HSV-1, strain MacIntyre [2]; [9]): 2.18 µM; EC50 (HSV-1, strain MacIntyre [2]; [8]): 0.107 µM; viability at 48 h, 10 µM [6]: ~80%; solubility in 15% DMSO in water ([4]; 15% DMSO in water): lower solubility; viral replication and spread in HSV-1-infected Vero cell culture (HSV-1, strain MacIntyre [5]; 10 µM): did not suppress viral replication and spread
CCCCCCCCc1ccc2c3cccc4c(C#Cc5cn([C@@H]6O[C@H](CO)[C@@H](O)[C@H]6O)c(=O)[nH]c5=O)ccc(c5cccc1c52)c43 [Compound 10b, 5-[9(10)-Octylperylen-3-ylethynyl]-ribo-uridine]	19.2 ± 1.5	> 200	0.59 (≈ 0.372 µg/mL)	only moderately active	HSV-1-inactivating effect after blue light irradiation (HSV-1, strain MacIntyre [2]): complete inactivation of HSV-1
CCCCCCCCCCCCc1ccc2c3cccc4c(C#Cc5cn([C@@H]6O[C@H](CO)[C@@H](O)[C@H]6O)c(=O)[nH]c5=O)ccc(c5cccc1c52)c43 [Compound 10c, 5-[9(10)-Dodecylperylen-3-ylethynyl]-ribo-uridine]	28.7 ± 8.6	> 200	0.24 (≈ 0.165 µg/mL)	completely inactive	
O=c1[nH]c(=O)n([C@H]2C[C@H](O)[C@@H](CO)O2)cc1C#Cc1ccc2c3cccc4cccc(c5cccc1c52)c43 [Compound 11, reference compound]	38.6 ± 0.8	< 10			
CCCCCCCCc1ccc2c3cccc4c(C#Cc5cn([C@H]6C[C@H](O)[C@@H](CO)O6)c(=O)[nH]c5=O)ccc(c5cccc1c52)c43 [Compound 11b, 5-[9(10)-Octylperylen-3-ylethynyl]-deoxy-uridine]	21.0 ± 2.0	10 to 200	0.67 (≈ 0.412 µg/mL)	only moderately active	viability at 48 h, 10 µM [6]: ~120%
Oc1ccc(C#Cc2ccc3c4cccc5cccc(c6cccc2c63)c54)cc1 [Compound 12, reference compound]		10 to 200			EC50 (HSV-1, strain MacIntyre [2]; Human alphaherpesvirus 1, 10 min, read-out: EC50 (µM) under Blue Light): 0.472 µM; viability at 48 h, 10 µM [6]: 109 to 122%
Oc1cccc(C#Cc2ccc3c4cccc5cccc(c6cccc2c63)c54)c1 [Compound 13, reference compound]		10 to 200			viability at 48 h, 10 µM [6]: 109 to 122%
Oc1ccc(C#Cc2ccc3c4cccc5cccc(c6cccc2c63)c54)cc1Br [Compound 14, reference compound]		10 to 200			viability at 48 h, 10 µM [6]: 109 to 122%
O=C(O)c1ccc(-c2ccc3c4cccc5cccc(c6cccc2c63)c54)s1 [Compound 15, 5-(perylene-3-yl)thiophenecarboxylic acid, reference compound]	73.2 ± 8.9	< 10			EC50 (HSV-1, strain MacIntyre [2]; [8]): 0.038 µM
CCCCc1ccc2c3cccc4c(-c5ccc(C(=O)O)s5)ccc(c5cccc1c25)c43 [Compound 15a, 5-[9(10)-Butylperylen-3-yl]thiophene-2-carboxylic acid]	91.6 ± 0.2	0.2 ± 0.2	0.11 (≈ 0.0478 µg/mL)	complete inhibition; also recorded: higher antiviral potency compared to acyclovir	Decrease in EC50 (Fold) (HSV-1, strain MacIntyre [2]): 5.4 fold; fold less active than non-alkylated counterparts (12, 15) (HSV-1, strain MacIntyre [2]): ~3 fold; EC50 (HSV-1, strain MacIntyre [2]; HSV-1 10^4 PFU/mL, 10 min in daylight, plaque assay, read-out: EC50 (µM) in Daylight): 0.608 µM; EC50 (HSV-1, strain MacIntyre [2]; HSV-1 10^4 PFU/mL, blue light 465–480 nm, 30 mW/cm^2, 10 min, plaque assay, read-out: EC50 (µM) under Blue Light): 0.112 µM; EC50 (HSV-1, strain MacIntyre [2]; [9]): 0.61 µM; EC50 (HSV-1, strain MacIntyre [2]; [8]): ~0.1 µM; viral replication and spread in HSV-1-infected Vero cell culture (HSV-1, strain MacIntyre [5]; 10 µM): did not suppress viral replication and spread
CCCCCCCCc1ccc2c3cccc4c(-c5ccc(C(=O)O)s5)ccc(c5cccc1c25)c43 [Compound 15b, 5-[9(10)-Octylperylen-3-yl]thiophene-2-carboxylic acid]	72.9 ± 5.6	10 to 200	0.1 (≈ 0.0491 µg/mL)	complete inhibition; also recorded: higher antiviral potency compared to acyclovir	Decrease in EC50 (Fold) (HSV-1, strain MacIntyre [2]): >3.5 fold; fold less active than non-alkylated counterparts (12, 15) (HSV-1, strain MacIntyre [2]): ~3 fold; HSV-1-inactivating effect in daylight (HSV-1, strain MacIntyre [2]; 0–10 µM, daylight): only partial or no viral inactivation; also recorded: no virus-inactivating effect; EC50 (HSV-1, strain MacIntyre [2]; [9]): > 10 µM; EC50 (HSV-1, strain MacIntyre [2]; [8]): 2.89 µM; viral replication and spread in HSV-1-infected Vero cell culture (HSV-1, strain MacIntyre [5]; 10 µM): did not suppress viral replication and spread
CCCCCCCCCCCCc1ccc2c3cccc4c(-c5ccc(C(=O)O)s5)ccc(c5cccc1c25)c43 [Compound 15c, 5-[9(10)-Dodecylperylen-3-yl]thiophene-2-carboxylic acid]	79.8 ± 8.9	10 to 200	0.05 (≈ 0.0273 µg/mL)	no anti-HSV-1 activity	HSV-1-inactivating effect after blue light irradiation (HSV-1, strain MacIntyre [2]): no virus-inactivating effect
Nc1nc2c(ncn2COCCO)c(=O)[nH]1 [acyclovir, reference compound]					anti-HSV-1 activity in Vero cells (HSV-1, strain MacIntyre [5]; 50 µM): completely inhibited HSV-1 replication
